{
  "source": "paper PMC5515969",
  "about": "“Effects of 31 FDA approved small-molecule kinase inhibitors on isolated rat liver mitochondria” (Archives of Toxicology, 2016)",
  "key": {"RCC I": {"system": "RCC I", "test": "RCC I activity in submitochondrial particles", "assay_type": "biochemical, rat", "parameters": "key to RCC I at 10XCmax / RCC I at 100XCmax / RCC I at 50XCmax / RCC I at 30XCmax / RCC I at 20XCmax: activity relative to DMSO-treated controls (control set as 1 = 100%)", "details": "10XCmax; relative to DMSO treated samples", "procedure": "(§1) KIs were incubated with submitochondrial particles (1 mg/ml) for 15 min and then RCC I–V activities measured. […] The activities of DMSO-treated samples (controls) were set as 1. […] The difference between the activity from rotenone-containing buffer and rotenone-absent buffer was considered as RCC I activity. […] For measuring RCC I/V and II activity, the changes in absorbance at 340 and 600 nm, respectively, were determined every 1 min for 6 min. For measuring RCC III and RCC IV, the changes in absorbance at 550 nm were measured every 10 s for 2 min."}, "[1]": {"system": "isolated rat liver mitochondria", "test": "Mitochondrial ROS production (CM-H2DCFDA)", "details": "DMSO treated samples set as 1"}, "[2]": {"system": "isolated rat liver mitochondria", "test": "Mitochondrial oxygen consumption (glutamate/malate or succinate driven, state 4 and state 3)", "assay_type": "biochemical", "details": "DMSO treated samples set as 1", "procedure": "Rats were anesthetized by an intraperitoneal injection of Nembutal and the liver perfused with PBS to remove the blood. The liver was then cut into small pieces and homogenized using a Dounce type homogenizer in the ice-cold isolation buffer (IB) containing 200 mM sucrose, 10 mM Tris-MOPS, 1 mM EGTA (pH 7.4). The sample was then centrifuged at 600g for 10 min. The supernatant was further centrifuged at 7500g for 10 min, and the pellets was washed once with the IB and centrifuged again at 7500g for 10 min to collect mitochondria. […] Before drug treatment, the protein concentration was adjusted to 1 mg/ml using appropriate buffer. […] Briefly, mitochondrial and cytosolic fractions from four different preparations using four rats were diluted using the Laemmli protein loading buffer and subject to SDS-PAGE with 4–20% gradient gels. The proteins were blotted to PVDF membranes and detected using antibodies against GAPDH, ATP5A, UQCRC2, SDHB, and NDUFB8.\nThe aliquoted stock solutions were kept for less than one month and each tube was used only once. The KIs were added to the mitochondria at 1:1000 dilutions. […] The Cmax data were from clinical trials which used FDA recommend dosages, route of administration, and duration. […] The final concentration of DMSO for drug treatment was always 0.1%, and control treatments were 0.1% DMSO.\nBriefly, mitochondria were incubated with the KIs for 5 min, and then split evenly and loaded to the sample tubes of two Oxytherm systems (Hansatech Instruments Ltd), with one system used for measuring glutamate/malate driven respiration and the other succinate-driven respiration, both of which were defined as state 4 respiration. After 3 min, ADP was added to measure the maximal oxygen consumption rate, which was defined as state 3 respiration. […] The oxygen consumption rate of DMSO-treated samples (controls) was set as 1."}, "[3]": {"system": "isolated rat liver mitochondria", "details": "positive control alamethicin treated samples"}, "RCC II": {"biological_target": "T1, RCC II (Rattus norvegicus, UniProt P21913+Q641Z9+Q6PCT8+Q920L2)", "T1 construct": "Submitochondrial particles were prepared by subjecting the intact mitochondria to three successive freeze–thaw cycles; from tissue; host or cells: rat liver mitochondria, used as submitochondrial particles", "T1 sequence (Q920L2 35-656)": "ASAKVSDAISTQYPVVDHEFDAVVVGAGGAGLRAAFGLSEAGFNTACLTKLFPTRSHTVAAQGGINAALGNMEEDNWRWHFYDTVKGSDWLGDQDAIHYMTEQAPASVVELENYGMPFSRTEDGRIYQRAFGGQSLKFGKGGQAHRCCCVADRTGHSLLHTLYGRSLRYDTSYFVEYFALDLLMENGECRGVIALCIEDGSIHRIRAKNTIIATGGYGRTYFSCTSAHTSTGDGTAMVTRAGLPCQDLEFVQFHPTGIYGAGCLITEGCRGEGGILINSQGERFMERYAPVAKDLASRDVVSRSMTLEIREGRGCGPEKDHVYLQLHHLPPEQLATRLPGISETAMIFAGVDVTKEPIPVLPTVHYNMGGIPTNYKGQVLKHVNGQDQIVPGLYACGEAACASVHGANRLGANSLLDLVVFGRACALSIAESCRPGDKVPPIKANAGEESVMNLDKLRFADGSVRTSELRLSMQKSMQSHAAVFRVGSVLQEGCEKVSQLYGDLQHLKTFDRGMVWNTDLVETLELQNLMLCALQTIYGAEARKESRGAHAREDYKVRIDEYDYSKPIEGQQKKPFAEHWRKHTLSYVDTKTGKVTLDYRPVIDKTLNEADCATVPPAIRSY", "T1 sequence (P21913 31-282)": "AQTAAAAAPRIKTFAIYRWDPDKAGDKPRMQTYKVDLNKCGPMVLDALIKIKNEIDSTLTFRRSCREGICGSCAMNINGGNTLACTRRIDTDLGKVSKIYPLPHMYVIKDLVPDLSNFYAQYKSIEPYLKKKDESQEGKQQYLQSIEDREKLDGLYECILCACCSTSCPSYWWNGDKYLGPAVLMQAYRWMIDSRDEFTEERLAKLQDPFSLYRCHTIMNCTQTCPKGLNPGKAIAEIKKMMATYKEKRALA", "T1 sequence (Q641Z9 1-169)": "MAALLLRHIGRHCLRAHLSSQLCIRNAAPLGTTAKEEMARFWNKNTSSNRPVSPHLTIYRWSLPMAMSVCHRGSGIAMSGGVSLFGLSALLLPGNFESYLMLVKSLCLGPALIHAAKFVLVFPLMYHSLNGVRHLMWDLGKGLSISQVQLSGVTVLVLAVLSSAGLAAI", "T1 sequence (Q6PCT8 57-159)": "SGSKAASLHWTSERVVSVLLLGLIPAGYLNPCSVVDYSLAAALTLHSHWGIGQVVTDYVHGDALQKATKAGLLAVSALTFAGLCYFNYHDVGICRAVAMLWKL", "test": "RCC II activity in submitochondrial particles", "assay_type": "biochemical", "parameters": "key: activity relative to DMSO-treated controls (control set as 1 = 100%)", "details": "relative to DMSO treated samples", "how_it_was_run": "(§2)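 Abs 340 nm (I/V) or 600 nm (II), 1-min reads × 6 min; 550 nm (III, IV), 10-s reads × 2 min. RCC I = rotenone-free minus rotenone rate. DMSO control = 1.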"}, "RCC IV": {"system": "RCC IV", "test": "RCC IV activity in submitochondrial particles", "assay_type": "biochemical, rat", "parameters": "key to RCC IV at 50XCmax / RCC IV at 100XCmax: activity relative to DMSO-treated controls (control set as 1 = 100%)", "details": "50XCmax; relative to DMSO treated samples; in %", "procedure": "as §1"}, "[4]": {"system": "isolated rat liver mitochondria", "test": "Mitochondrial inner membrane potential (MMP), Rhodamine 123", "assay_type": "biochemical", "details": "difference in signal between KI and DMSO treated samples at the end of experiments", "text": "Fig. 3 KI effects on mitochondrial inner membrane potential (MMP). […] In a, c, data are means and standard derivations from three separate experiments. *p < 0.05 as compared to DMSO-treated samples at the end of experiments. In b, data are means of two independent experiments"}, "RCC III": {"system": "RCC III", "test": "RCC III activity in submitochondrial particles", "assay_type": "biochemical, rat", "parameters": "key to RCC III at 100XCmax: activity relative to DMSO-treated controls (control set as 1 = 100%)", "details": "100XCmax; relative to DMSO treated samples", "procedure": "as §1"}, "RCC V": {"system": "RCC V", "test": "RCC V activity in submitochondrial particles", "assay_type": "biochemical, rat", "details": "relative to DMSO treated samples", "how_it_was_run": "as §2"}, "[5]": {"details": "cited from earlier work"}, "[6]": {"parameters": "method as in product labeling", "details": "ref product labeling; cited from earlier work"}, "[7]": {"system": "isolated rat liver mitochondria", "test": "Mitochondrial swelling (absorbance at 535 nm)", "assay_type": "biochemical", "details": "difference in signal between KI and DMSO treated samples at the end of experiments"}},
  "note": "Where two headings read alike, the source gives them in different places. Wherever RCC V at 5XCmax is given: key: 0 indicates that the drug had no effects (negative). Wherever State 3 respiration driven by succinate at 10XCmax is given: key: 0 indicates that the drug had no effects (negative). Wherever State 3 respiration driven by succinate at 1XCmax is given: key: 0 indicates that the drug had no effects (negative). Wherever Swelling 5XCmax is given: key: 0 indicates that the drug had no effects (negative).",
  "data": [
    {"smiles": "COc1cc2ncnc(Nc3ccc(F)c(Cl)c3)c2cc1OCCCN1CCOCC1", "note": "[Gefitinib]", "values": [
      {"measurement": "RCC I at 10XCmax", "setting": "RCC I", "value": 0},
      {"measurement": "ROS measured by CM-H2DCFDA at 1XCmax", "setting": "[1]; 1XCmax", "value": 0},
      {"measurement": "ROS measured by CM-H2DCFDA at 2.5XCmax", "setting": "[1]; 2.5XCmax", "value": 0},
      {"measurement": "ROS measured by CM-H2DCFDA at 5XCmax", "setting": "[1]; 5XCmax", "value": 0},
      {"measurement": "ROS measured by CM-H2DCFDA at 10XCmax", "setting": "[1]; 10XCmax", "value": 0},
      {"measurement": "ROS measured by CM-H2DCFDA at 20XCmax", "setting": "[1]; 20XCmax", "value": 0},
      {"measurement": "ROS measured by CM-H2DCFDA at 30XCmax", "setting": "[1]; 30XCmax", "value": 0},
      {"measurement": "ROS measured by CM-H2DCFDA at 50XCmax", "setting": "[1]; 50XCmax", "value": 0},
      {"measurement": "ROS measured by CM-H2DCFDA at 100XCmax", "setting": "[1]; 100XCmax", "value": 0},
      {"measurement": "State 3 respiration driven by succinate at 1XCmax", "setting": "[2]; 1XCmax", "value": 0},
      {"measurement": "State 4 respiration driven by succinate at 1XCmax", "setting": "[2]; 1XCmax", "value": 0},
      {"measurement": "State 3 respiration driven by succinate at 2.5XCmax", "setting": "[2]; 2.5XCmax", "value": 0},
      {"measurement": "State 4 respiration driven by succinate at 2.5XCmax", "setting": "[2]; 2.5XCmax", "value": 0},
      {"measurement": "State 3 respiration driven by succinate at 5XCmax", "setting": "[2]; 5XCmax", "value": 0},
      {"measurement": "State 4 respiration driven by succinate at 5XCmax", "setting": "[2]; 5XCmax", "value": 0},
      {"measurement": "State 3 respiration driven by succinate at 10XCmax", "setting": "[2]; 10XCmax", "value": 0},
      {"measurement": "State 4 respiration driven by succinate at 10XCmax", "setting": "[2]; 10XCmax", "value": 0},
      {"measurement": "State 3 respiration driven by succinate at 20XCmax", "setting": "[2]; 20XCmax", "value": 0},
      {"measurement": "State 4 respiration driven by succinate at 20XCmax", "setting": "[2]; 20XCmax", "value": 0},
      {"measurement": "State 3 respiration driven by succinate at 30XCmax", "setting": "[2]; 30XCmax", "value": 0},
      {"measurement": "State 4 respiration driven by succinate at 30XCmax", "setting": "[2]; 30XCmax", "value": 0},
      {"measurement": "State 3 respiration driven by succinate at 50XCmax", "setting": "[2]; 50XCmax", "value": 0},
      {"measurement": "State 4 respiration driven by succinate at 50XCmax", "setting": "[2]; 50XCmax", "value": 0},
      {"measurement": "State 3 respiration driven by succinate at 100XCmax", "setting": "[2]; 100XCmax", "value": 0},
      {"measurement": "State 4 respiration driven by succinate at 100XCmax", "setting": "[2]; 100XCmax", "value": 0},
      {"measurement": "Cytochrome c release 1XCmax", "setting": "[3]; 1XCmax", "value": 0},
      {"measurement": "Cytochrome c release 2.5XCmax", "setting": "[3]; 2.5XCmax", "value": 0},
      {"measurement": "Cytochrome c release 5XCmax", "setting": "[3]; 5XCmax", "value": 0},
      {"measurement": "Cytochrome c release 10XCmax", "setting": "[3]; 10XCmax", "value": 0},
      {"measurement": "Cytochrome c release 20XCmax", "setting": "[3]; 20XCmax", "value": 0},
      {"measurement": "Cytochrome c release 30XCmax", "setting": "[3]; 30XCmax", "value": 0},
      {"measurement": "Cytochrome c release 50XCmax", "setting": "[3]; 50XCmax", "value": 0},
      {"measurement": "Cytochrome c release 100XCmax", "setting": "[3]; 100XCmax", "value": 0},
      {"measurement": "RCC II at 1.0XCmax", "setting": "RCC II; 1.0XCmax", "value": 0},
      {"measurement": "RCC II at 2.5XCmax", "setting": "RCC II; 2.5XCmax", "value": 0},
      {"measurement": "RCC II at 5XCmax", "setting": "RCC II; 5XCmax", "value": 0},
      {"measurement": "RCC II at 10XCmax", "setting": "RCC II; 10XCmax", "value": 0},
      {"measurement": "RCC II at 20XCmax", "setting": "RCC II; 20XCmax", "value": 0},
      {"measurement": "RCC II at 30XCmax", "setting": "RCC II; 30XCmax", "value": 0},
      {"measurement": "RCC II at 50XCmax", "setting": "RCC II; 50XCmax", "value": 0},
      {"measurement": "RCC II at 100XCmax", "setting": "RCC II; 100XCmax", "value": 0},
      {"measurement": "RCC IV at 50XCmax", "setting": "RCC IV", "value": 0},
      {"measurement": "MMP measured by Rhodamine 123 at 1XCmax", "setting": "[4]; 1XCmax", "value": 0},
      {"measurement": "MMP measured by Rhodamine 123 at 2.5XCmax", "setting": "[4]; 2.5XCmax", "value": 0},
      {"measurement": "MMP measured by Rhodamine 123 at 5XCmax", "setting": "[4]; 5XCmax", "value": 0},
      {"measurement": "MMP measured by Rhodamine 123 at 10XCmax", "setting": "[4]; 10XCmax", "value": 0},
      {"measurement": "MMP measured by Rhodamine 123 at 20XCmax", "setting": "[4]; 20XCmax", "value": 0},
      {"measurement": "MMP measured by Rhodamine 123 at 30XCmax", "setting": "[4]; 30XCmax", "value": 0},
      {"measurement": "MMP measured by Rhodamine 123 at 50XCmax", "setting": "[4]; 50XCmax", "value": 0},
      {"measurement": "MMP measured by Rhodamine 123 at 100XCmax", "setting": "[4]; 100XCmax", "value": 0},
      {"measurement": "RCC III at 100XCmax", "setting": "RCC III", "value": 0},
      {"measurement": "RCC V at 5XCmax", "setting": "RCC V; 5XCmax", "value": 0},
      {"measurement": "RCC V at 50XCmax", "setting": "RCC V; 50XCmax", "value": 0},
      {"measurement": "Cmax", "setting": "[5]; human therapeutic Cmax at FDA recommended dosages, ref product labeling and drug approval packages at the official FDA website", "value": 0.27, "unit": "µM"},
      {"measurement": "Cmax", "setting": "[5]; read-out: Cmax at µM, therapeutic maximal blood concentration, ref product labeling", "value": 0.27, "unit": "µM"},
      {"measurement": "Cmax", "setting": "[5]; therapeutic maximal blood concentration, ref product labeling", "value": 122, "unit": "ng/mL"},
      {"measurement": "Potential for cardiotoxicity (based on labeling)", "setting": "[6]", "value": 0},
      {"measurement": "Swelling 1XCmax", "setting": "[7]; 1XCmax", "value": 0},
      {"measurement": "Swelling 2.5XCmax", "setting": "[7]; 2.5XCmax", "value": 0},
      {"measurement": "Swelling 5XCmax", "setting": "[7]; 5XCmax", "value": 0},
      {"measurement": "Swelling 10XCmax", "setting": "[7]; 10XCmax", "value": 0},
      {"measurement": "Swelling 20XCmax", "setting": "[7]; 20XCmax", "value": 0},
      {"measurement": "Swelling 30XCmax", "setting": "[7]; 30XCmax", "value": 0},
      {"measurement": "Swelling 50XCmax", "setting": "[7]; 50XCmax", "value": 0},
      {"measurement": "Swelling 100XCmax", "setting": "[7]; 100XCmax", "value": 0}
    ]}
  ]
}
